Columns and labels:
[1] = system: Rattus norvegicus; assay: Inhibition of ionic high-osmolar contrast medium-induced oxidative stress in Rattus norvegicus Wistar albino (rat) liver assessed as SOD activity at 250 mg/kg/day administered through drinking water measured on 6th day by NBT reduction method (reference value: 146.4 +/- 25.89 U/mg); format: functional
[2] = system: Rattus norvegicus; assay: Inhibition of ionic high-osmolar contrast medium-induced oxidative stress in Rattus norvegicus Wistar albino (rat) liver assessed as MDA level at 250 mg/kg/day administered through drinking water measured on 6th day by TBARS method (reference value: 0.579 +/- 0.129 %); format: functional; design: scale not given: the % may be the effect or the level left
[3] = system: Rattus norvegicus; assay: Inhibition of ionic high-osmolar contrast medium-induced oxidative stress in Rattus norvegicus Wistar albino (rat) bladder assessed as MDA level at 250 mg/kg/day administered through drinking water measured on 6th day by TBARS method (reference value: 1.180 +/- 0.803 %); format: functional; design: scale not given: the % may be the effect or the level left
[4] = system: Rattus norvegicus; assay: Inhibition of ionic high-osmolar contrast medium-induced oxidative stress in Rattus norvegicus Wistar albino (rat) liver assessed as NOS activity at 250 mg/kg/day administered through drinking water measured on 6th day (reference value: 0.208 +/- 0.031 mIU/ml); format: functional
[5] = system: Rattus norvegicus; assay: Inhibition of ionic high-osmolar contrast medium-induced oxidative stress in Rattus norvegicus Wistar albino (rat) liver assessed as NO level at 250 mg/kg/day administered through drinking water measured on 6th day by Griess reaction method (reference value: 1.082 +/- 0.359%); format: functional; design: scale not given: the % may be the effect or the level left
[6] = system: Rattus norvegicus; assay: Inhibition of ionic high-osmolar contrast medium-induced oxidative stress in Rattus norvegicus Wistar albino (rat) liver assessed as catalase activity at 250 mg/kg/day administered through drinking water measured on 6th day (reference value: 119.8 +/- 13.43 IU); format: functional
[7] = system: Rattus norvegicus; assay: Inhibition of ionic high-osmolar contrast medium-induced oxidative stress in Rattus norvegicus Wistar albino (rat) ovary assessed as MDA level at 250 mg/kg/day administered through drinking water measured on 6th day by TBARS method (reference value: 0.986 +/- 0.323 %); format: functional, Female gonad; design: scale not given: the % may be the effect or the level left
[8] = system: Rattus norvegicus; assay: Inhibition of ionic high-osmolar contrast medium-induced oxidative stress in Rattus norvegicus Wistar albino (rat) liver assessed as GSH-Px activity at 250 mg/kg/day administered through drinking water measured on 6th day (reference value: 0.056 +/- 0.019 IU); format: functional

## O=C1O[C@H]([C@@H](O)CO)C(O)=C1O [ASCORBIC ACID]
[1]
  Activity: 193.2 U/mg
[2]
  Activity: 0.49%
[3]
  Activity: 0.821%
[4]
  Activity: 0.224 mIU/ml
[5]
  Activity: 0.965%
[6]
  Activity: 118.9 IU
[7]
  Activity: 0.762%
[8]
  Activity: 0.05 IU

Reference: ChEMBL document CHEMBL3045827, “High osmolar contrast medium causes mild oxidation in liver, bladder, and ovary tissues from rats: vitamin C has protective role” (2010)
